{"source": "patent US20060171944A1", "about": "“N-formyl peptide receptor mediation of platelet chemotaxis toward injured cells and activation of immune response” (priority 2002, published 2006)", "key": {"platelet FPR": {"molecular_target": "T1, platelet FPR (Homo sapiens, UniProt P21462)", "T1 construct": "endogenous in cells", "T1 sequence (P21462 1-350)": "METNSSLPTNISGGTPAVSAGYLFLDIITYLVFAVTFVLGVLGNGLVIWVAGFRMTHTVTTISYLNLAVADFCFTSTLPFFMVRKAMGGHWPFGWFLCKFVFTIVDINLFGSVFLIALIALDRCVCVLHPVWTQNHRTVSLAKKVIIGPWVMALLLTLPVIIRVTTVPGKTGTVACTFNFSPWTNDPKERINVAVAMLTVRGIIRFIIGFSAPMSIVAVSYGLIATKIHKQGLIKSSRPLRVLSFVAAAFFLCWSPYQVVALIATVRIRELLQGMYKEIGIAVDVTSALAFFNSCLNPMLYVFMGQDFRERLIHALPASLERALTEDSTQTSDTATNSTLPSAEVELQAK", "test": "Inhibition of platelet chemotaxis to fMLF in transwell migration assay", "format": "cell-based", "settings": "1 U and 10 U; non-activated and thrombin-activated platelets; P<0.001", "method": "In order to further confirm the specificity of the chemotactic response to N-formyl peptide binding of the FPR, platelet FPR was inhibited by several methods to establish its functional requirement for platelet chemotaxis. Platelets were pretreated with an FPR-specific antibody (α-FPR) capable of blocking the binding of N-formyl peptides to the FPR receptor, prior to the transwell migration assay. […] Additionally, platelets were treated with pertussis toxin, a specific inhibitor of the a-subunit of members of the Gi/o class of G-proteins required for FPR activation.\nPlatelet migration was assessed using a 96-well ChemoTx® microplate (Neuro Probe, Gaithersburg Md.). For all chemotaxis experiments, different concentrations of stimulants were placed in the bottom wells of the microplate and the filter was positioned (2 μm pore size). The cell suspension was seeded onto the top of the filter (30 μl) and the microplates were incubated for 2 hrs at 37° C. For all chemokinesis experiments, different concentrations of stimulants were placed in the bottom wells of the microplate and the filter was positioned. […] The filter was then carefully removed and the migrated cells were counted by light microscopy. Results are expressed as the mean value (±SD) of total migrated cells, in triplicate samples, and are taken from five experiments independent."}, "human platelets": {"test_system": "human platelets", "test": "Platelet chemotaxis toward ischemic/reperfused human aortic endothelial cells", "format": "cell-based", "settings": "thrombin-activated platelets", "method": "Primary human aortic endothelial cells were plated in 0.2% gelatin (Sigma) coated 96-well ChemoTx microplates and allowed to recover for 48 hours. Before the plate was placed in the modular incubator chamber (Billups-Rothenberg Inc.; Del Mar, Calif.) the media was replaced with serum-free media containing 10 mM Hepes. The plate was placed on ice and put into the air tight modular incubator chamber and flushed with a gas mixture of 5% CO2 and 95% N2 for 90 min to induce ischemia. The cell culture was then returned to a normoxic environment of atmospheric air/5% CO2 to simulate reperfusion, and allowed to recover for 4 hours in a cell culture incubator. Chemotaxis experiments were then performed.\nIn particular, studies were performed to determine whether endogenous danger signals released by tissues undergoing ischemia/reperfusion cell injury induced platelet chemotaxis. Primary human aortic cells, plated in a 96-well ChemoTx plate NeuroProbeInc. Gaithersburg, Md. were placed on ice and put into an air tight modular incubator chamber that was flushed with a gas mixture of 5% CO2 and 95% N2 for 90 min to induce ischemia. The cell culture was then returned to a normoxic environment of atmospheric air/5% CO2 and allowed to recover for 4 hours in a cell culture incubator at 37° C."}}}
{"substance": "pertussis toxin", "values": [{"measurement": "effect of platelet treatment with pertussis toxin on migration to fMLF", "setting": "platelet FPR", "value": "significantly decreased migration"}, {"measurement": "effect of platelet treatment on chemotaxis toward ischemic aortic endothelial cells", "setting": "human platelets", "value": "decreased chemotaxis"}]}
